# Laboratory results published in ChEMBL document CHEMBL1130134, “Synthesis of carboranes containing an azulene framework and in vitro evaluation as boron carriers” (J Med Chem, 1997).
# Columns and labels:
# [1] = test system: B16; assay: Compound was tested for the in vitro growth inhibition of B-16 melanoma cells after incubation for 3 days (cytotoxicity), the dose that failed to inhibit cell growth by more than 50% was determined; format: functional, cell-based; details: Mus musculus, B16, 72 h
# [2] = test system: B16; assay: Boron incorporation into B-16 melanoma cells(1000000 cells) after 24 hours incubation (10.8 ug of B/mL).; format: functional, Mus musculus
structure (smiles),measurement,setting,value
CC(C)(c1ccc(O)cc1)c1ccc(O)cc1 [BISPHENOL A],IC50,[1],8.6 mM
same,B incorporation,[2],0.31 µg
